Measured values: US20090042882A1, “SUBSTITUTED ACETAMIDES AS MODULATORS OF THE EP2 RECEPTOR” (priority 2007, published 2009)

Experiments:
[1] = target: T1, human prostaglandin E2 (subtype EP2) receptor (Homo sapiens, UniProt P43116); experiment: cAMP antagonism assay; type: cell-based; settings: in the presence of PGE2
T1 construct: host or cells: cells in a culture plate
Protocol: (§1) The binding of PGE2 to the EP2 subtype of the human PGE2 receptor induces activation of membrane-associated adenylate cyclases and leads to the formation of cAMP. In the presence of the phosphodiesterase inhibitor IBMX, cAMP which has accumulated due to this stimulation and been released by cell lysis is employed in a competitive detection method. In this assay, the cAMP in the lysate competes with cAMP-XL665 for binding of an Eu cryptate-labelled anti-cAMP antibody.
(§2) The two signals are measured in a suitable measuring instrument with a time lag, i.e. after the background fluorescence has declined.
(§3) The substance solutions (0.75 μl) introduced into an assay plate and 30% DMSO are dissolved in 16 μl of a KRSB+IBMX stimulation solution (1× Krebs-Ringer Bicarbonate Buffer; Sigma-Aldrich # K-4002; including 750 μM 3-isobutyl-1-methylxanthine Sigma-Aldrich # I-7018), and then 15 μl thereof are transferred into a media-free cell culture plate which has been washed with KRSB shortly beforehand.
After preincubation at room temperature (RT) for 30 minutes, 5 μl of a 4×PGE2 solution (11 nM) are added, and incubation is carried out in the presence of the agonist at RT for a further 60 min (volume: ˜20 μl) before the reaction is then stopped by adding 5 μl of lysis buffer and incubated at RT for a further 20 min (volume: ˜25 μl). The cell lysate is then transferred into a measuring plate and measured in accordance with the manufacturer's information (cyclic AMP kit Cisbio International #62AMPPEC).

[2] = target: T1, human prostaglandin E2 (subtype EP2) receptor; experiment: cellular cAMP agonism assay; type: cell-based
Protocol: as §1, §2, §3
After incubation at room temperature (RT; volume: ˜15 μl) for 60 minutes, the reaction is then stopped by adding 5 μl of lysis buffer and incubated at RT for a further 20 min (volume: ˜20 μl). The cell lysate is then transferred into a measuring plate and measured in accordance with the manufacturer's information (cyclic AMP kit Cisbio International #62AMPPEC).

[3] = system: cumulus-oocyte complexes (cumulus expansion); experiment: cumulus expansion assay in vitro; type: cell-based, mice
Protocol: Folliculogenesis is induced in immature female mice (strain: CD1 (ICR) from Charles River) at an age of 14-18 days by a single dose (intraperitoneal) of 10 I.U. of PMSG (Pregnant Mare Serum Gonadotropine; Sigma G-4877, Lot 68H0909). 47-50 hours after the injection, the ovaries are removed and the cumulus-oocyte complexes are removed. The cumulus complex is not yet expanded at this stage.
The cumulus-oocyte complexes are then incubated with prostaglandin E2 (PGE2) (0.3 μM), vehicle control (ethanol) or test substances for 20-24 hours. Medium: alpha-MEM medium with 0.1 mM IBMX, pyruvates (0.23 mM) glutamines (2 mM), pen/strep 100 IU/ml pen. and 100 μg/ml strep.) and HSA (8 mg/ml)). Cumulus expansion is then established through the division into four stages (according to Vanderhyden et al. Dev Biol. 1990 August; 140 (2):307-317).

T1 sequence (P43116 whole entry): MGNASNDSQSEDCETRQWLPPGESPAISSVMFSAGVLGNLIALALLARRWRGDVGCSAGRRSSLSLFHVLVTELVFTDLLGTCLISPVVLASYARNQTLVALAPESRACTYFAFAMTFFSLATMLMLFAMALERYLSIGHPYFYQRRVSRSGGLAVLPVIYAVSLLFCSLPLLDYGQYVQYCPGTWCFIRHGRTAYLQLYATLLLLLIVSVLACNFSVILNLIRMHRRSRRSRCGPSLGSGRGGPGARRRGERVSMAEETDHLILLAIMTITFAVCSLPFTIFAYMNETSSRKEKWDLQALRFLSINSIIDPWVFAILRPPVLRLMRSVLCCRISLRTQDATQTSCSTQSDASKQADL

| IC50 [1] [µM] | effect in the cellular agonism test [2] | Compound | inhibition of cumulus expansion ([3]; concentration 10 μM (10 to 20 times lower than AH 6809), competing with PGE2) [%] | inhibition of cumulus expansion ([3]; concentration 100-200 μM, competing with the natural EP2 receptor agonist PGE2) [%] |
| --- | --- | --- | --- | --- |
| 2.7 | – | Cc1[nH]c2c(F)ccc(C)c2c1CCNC(=O)COc1ccccc1 [Example 5, N-[2-(7-Fluoro-2,4-dimethyl-1H-indol-3-yl)-ethyl]-2-phenoxy-acetamide] | – | – |
| 1.3 | no inhibition | Cc1[nH]c2c(F)ccc(C)c2c1CCNC(=O)COc1ccc(Cl)cc1 [Example 6, 2-(4-Chlorophenoxy)-N-[2-(7-fluoro-2,4-dimethyl-1H-indol-3-yl)ethyl]-acetamide] | 30 | – |
| 1.1 | – | COc1ccc(OCC(=O)NCCc2c(C)[nH]c3c(F)ccc(C)c23)cc1 [Example 1, N-[2-(7-Fluoro-2,4-dimethyl-1H-indol-3-yl)ethyl]2-(4-methoxyphenoxy)acetamide] | – | – |
| – | – | CC(C)Oc1ccc2c(=O)c3cc(C(=O)O)ccc3oc2c1 [AH 6809, reference compound] | – | ~30 |
